In the NIST ThermoML archive (doi:10.1021/je7003337):
Numbers after ± are expanded uncertainties.

Assay: refractive index (Na D-line) (dimensionless)
Conditions: 298.15 K; 101.33 kPa; Liquid; Standard Abbe refractometry

Cc1ccc(C)cc1 [1,4-dimethylbenzene]
refractive index: 1.49321 ± 0.00072

CCCCCC [hexane]
refractive index: 1.37226 ± 0.00072
